Counter-ions that a name gives are not always drawn.
What was measured:
[1] = system: IL-1β induced PGE2 production; test: PGE2 production induced by IL-1β in chondrocyte cell culture; format: cell-based, rabbit; details: at 10 μM
Text: (§1) Conversely, compounds of the invention are able to inhibit, at micromolar concentration, IL-1β induced PGE2 production in cellular systems. This inhibition effect on the production of the pro-inflammatory mediator PGE2, instead of to be ascribed to a direct COX-2 inhibition, as happens with Celecoxib and other COX-2 inhibitors, is in this case due to inhibition of cytokine induced COX-2 expression as proven in cellular systems.
(§2) Effectiveness in inhibition of PGE2 production induced by IL-1β in chondrocyte cell culture, as well as inhibition in IL-1β induced COX-2 expression in SW1353 human chondrosarcoma cell line, is summarized in Table 2, for representative compounds of the invention.

COX-2 expression = test: IL-1β induced COX-2 expression in SW1353 human chondrosarcoma cell line; format: cell-based; details: at 10 μM
Text: as §1, §2

IL-1 production = IL-1 production in IL-1 stimulated human chondrosarcoma cell line; format: cell-based; details: Compound concentration is 10 μM
Text: (§3) The compounds of the invention have been found effective in interfering with cytokine production in several cell lines, representative examples of this effect are reported in Table 3, for two representative cytokines, in IL-1 stimulated human chondrosarcoma cell line.

IL-6 production = IL-6 production in IL-1 stimulated human chondrosarcoma cell line; format: cell-based; details: Compound concentration is 10 μM
Text: as §3

[2] = system: Zymosan-induced mechanical hyperalgesia; test: Zymosan-induced mechanical hyperalgesia (Randall-Selitto); format: in vivo, rat
Protocol: (§4) The interplantar injection of Zymosan-induced mechanical hyperalgesia was used as a model of inflammatory pain (Meller, Neuropharmacology, 1994, 33, 1471-1478). In this model, typically a male Sprague-Dawley or Wistar rat (200-250 g) receives an interplantar injection of 3 mg/100 μl zymosan into one hind paw. A marked inflammation occurs in this hind paw. Drugs are administered orally for evaluation of efficacy, 30 min. before the inflammatory insult. The hyperalgesia induced by zymosan administration was evaluated using the Randall-Selitto method (Arch. Int. Pharmacodyn., 1957, 111, 409). The quantitation of the analgesic effect is achieved by an analgesimeter, which consist in applying to the inflamed paw an increasing weight (from 130-140 g up to 500 g). The difference in the mechanical pain threshold between the basal value (generally 230-250 g) and the one tolerated by the animals treated with the drug, determined 4 hours after the inflammatory challenge, is defined as mechanical hyperalgesia.
(§5) Mechanical hyperalgesia is expressed for the compounds of the invention as ED50, which is the dose of the administered compound able to increase the pain threshold by 50% in comparison with the group of control animals. The corresponding ED100, representing the dose able of reducing of 100% the pain threshold, can be calculated for those cases where there is a linear dose-response relationship. In vivo anti-inflammatory effect exerted by the compound of the invention can be assessed in the same Zymosan induced inflammation test described above, by measuring the volume of the oedema induced by the inflammatory agent. The oedema was evaluated as the increase in the volume of the Zymosan injected paw within a time of 0-2 hrs. The measurements of the variation of the oedema volume of the paw were recorded using hydroplethysmometer, which consists of two plastic cuvettes containing a surfactant liquid, the larger one being used for immersion of the paw, connected to the smaller one which contains a trans-ducer capable of recording small displacements of the volume used for the measure. The paw is immersed in the cuvettes up to the tibiotarsal joint. The volume of the liquid displaced is proportional to the extent of the inflammation. The efficacy of the compounds of the invention in preventing oedema formation is expressed as ED30, and is measured 2 hours after the inflammatory challenge, and represents the dose able of reducing of 30%, the Zymosan induced paw volume increase in comparison to control animals (animals treated with Zymosan but treated with only distilled water instead of the testing compound). The corresponding ED50, representing the dose able of reducing of 50% the zymosan induced paw volume increase, can be calculated for those cases where there is a linear dose-response relationship.
(§6) In both the experiments, for each test compound, at least three doses were used, with 10 animals per group. Compounds of the invention were tested at 10, 20 and 40 mg/Kg.

[3] = system: Zymosan induced paw volume increase; test: Zymosan-induced paw oedema; format: in vivo, rat
Protocol: as §4, §5, §6

CFA-induced hyperalgesia = test: CFA model of chronic inflammatory pain; format: in vivo, rat
[4] = system: mechanical hyperalgesia associated with STZ-induced diabetes; test: STZ-induced diabetes mechanical hyperalgesia (neuropathic pain); format: in vivo, rat
Protocol: Streptozotocin (STZ)-induced diabetes in the rat has been increasingly used as a model of painful diabetic neuropathy to assess the efficacies of potential analgesic agents (C. Courteix, Pain 1993, 53, 81-8). The compounds of the invention were tested for efficacy in reducing mechanical hyperalgesia associated with STZ-induced diabetes in the rat, according to the experimental model as described by the literature. Diabetes was produced with the injection of a single dose (75 mg/Kg i.p.) of STZ. In the following four weeks after the induction of diabetes the clinical symptoms (weight, body and skin temperature, motility and hyperglycemia) progressively developed by the animals, are strictly monitored. After four weeks, the scores obtained in diabetic rats to various pain stimuli (in particular mechanical stimuli) were grater than those in normal rats, indicating hyperalgesia. The hyperalgesia induced by diabetes was evaluated using the Randall-Selitto method as above described, and quantitated using the analgesimeter. Also in this case, the difference in the mechanical pain threshold between the basal value (generally 230-250 g) and the one tolerated by the animals treated with the drug, is defined as mechanical hyperalgesia. The compounds of the invention were administered i.p. (solution, Tween 80, 10% in saline) at different doses, and mechanical hyperalgesia was measured at the reported time, as maximum percent effect (MPE) which represents the difference (%) in pain threshold between the animals treated with the drug and the controls that received only the vehicle, compared with the weight borne by naïf non-diabetic controls. A 100% protection means that the diabetic animals treated with the compound can tolerate the same stimulus (weight) as the naïf non-diabetic animals. MPE higher than 100% means that the diabetic animal treated with the compound can tolerate stimuli (weight) higher than the control non-diabetic animals (hypoalgesia).

[5] = system: acetic acid-induced abdominal writhes; test: Acetic acid-induced writhing test; format: in vivo, mice; details: for MPE (%): 30 min. before acetic acid
Protocol: With the aim of assessing whether the compounds of the invention are able to inhibit responses to peritoneal irritation-induced visceral pain, the acetic acid-induced writhing assay was used in mice to determine the degree of anti-nociception.
The writhing test is a model of inflammatory pain that has long been used as a screening tool for evaluation of analgesic and anti-inflammatory agents (HDJ Collier, B. J. Pharmacol Chemother., 1968, 32, 295-310). The test was performed inducing nociception by an i.p. injection of acetic acid 1%, 0.1 mL/10 g of body weight. Mice were pre-treated (subcutaneously, s.c., three different doses: 3, 10, 30 mg/Kg) with the tested compounds 30 min. before acetic acid injection, while control animals received a similar volume of saline solution. A group of mice was treated with Paracetamol (200 mg/Kg, s.c.) as reference drug. The number of abdominal writhes (full extension of both hind paws) was cumulatively counted every 5 minutes over a period of 20 min. immediately after the acetic acid injection. The anti-nociceptive activity was expressed as inhibition of abdominal writhes as maximum percent effect (MPE), which represents the difference (%) in pain threshold between the animals treated with the drug and the ones that received only the vehicle.

CC(=N)Nc1ccc2nc(-c3ccc4c(c3)OCO4)ccc2c1 [Example 2, N-[2-(1,3-benzodioxol-5-yl)quinolin-6-yl]acetamidine dihydrochloride]
Effects on PGE2 production in rabbit Chondrocyte culture, % at 10 μM [1]: 70% at 10 μM
Inhibition of COX-2 expression in SW1353 human chondrosarcoma cell line, % at 10 μM (COX-2 expression): 59% at 10 μM
Inhibition (%) of IL-1 production (IL-1 production): 45%
Inhibition (%) of IL-6 production (IL-6 production): 78%
ED50 ([2]; Rattus norvegicus, read-out: Analgesia ED50): 10.7 mg/kg
Analgesia ED100 ([2]; oral, calculated from linear dose-response): 22 mg/kg
ED50 ([3]; Rattus norvegicus, po, read-out: Oedema Reduction ED50): 98 mg/kg
Oedema Reduction ED30 ([3]; oral, 2 hours after challenge): 15.0 mg/kg
MPE 0.5 hrs. (CFA-induced hyperalgesia; 3 mg/Kg i.p.): 36%
MPE 1.5 hrs. (CFA-induced hyperalgesia; 3 mg/Kg i.p.): 40%
MPE 3 hrs. (CFA-induced hyperalgesia; 3 mg/Kg i.p.): 7%
MPE 0.5 hrs. (CFA-induced hyperalgesia; 10 mg/Kg i.p.): 94%
MPE 1.5 hrs. (CFA-induced hyperalgesia; 10 mg/Kg i.p.): 34%
MPE 3 hrs. (CFA-induced hyperalgesia; 10 mg/Kg i.p.): 11%
MPE 24 hrs. (CFA-induced hyperalgesia; 10 mg/Kg i.p.): 13%
MPE 0.5 hrs. (CFA-induced hyperalgesia; 30 mg/Kg i.p.): 188%
MPE 1.5 hrs. (CFA-induced hyperalgesia; 30 mg/Kg i.p.): 81%
MPE 3 hrs. (CFA-induced hyperalgesia; 30 mg/Kg i.p.): 34%
MPE 24 hrs. (CFA-induced hyperalgesia; 30 mg/Kg i.p.): 9%
MPE 0.5 hrs. ([4]; 3 mg/Kg i.p.): 32%
MPE 1.5 hrs. ([4]; 3 mg/Kg i.p.): 75%
MPE 3 hrs. ([4]; 3 mg/Kg i.p.): 8%
MPE 0.5 hrs. ([4]; 10 mg/Kg i.p.): 76%
MPE 1.5 hrs. ([4]; 10 mg/Kg i.p.): 107%
MPE 3 hrs. ([4]; 10 mg/Kg i.p.): 13%
MPE 0.5 hrs. ([4]; 30 mg/Kg i.p.): 151%
MPE 1.5 hrs. ([4]; 30 mg/Kg i.p.): 124%
MPE 3 hrs. ([4]; 30 mg/Kg i.p.): 93%
MPE (%) ([5]; 3 mg/Kg s.c.): 59%
MPE (%) ([5]; 10 mg/Kg s.c.): 61%
MPE (%) ([5]; 30 mg/Kg s.c.): 57%
ED50 ([5]; Mus musculus, sc): < 3 mg/kg

Source: patent US7968558B2, “Amidine derivatives of 2-heteroaryl-quinazolines and quinolines; potent analgesics and anti-inflammatory agents” (Rottapharm S.p.A., priority 2006, dated 2011)
